{
  "source": "patent US8703104B2",
  "about": "“Use of metal astringents for the treatment of hairy heel warts” (Ecolab USA Inc, priority 2007, dated 2014)",
  "tested_on": "hairy heel wart lesions on the cows",
  "key": {"[1]": {"conditions": "Day 0, prior to first treatment"}, "[2]": {"conditions": "Grading Period 1 (Day 0), one day prior to first treatment"}},
  "note": "Read-outs that look alike come from different tables or passages of the source.",
  "data": [
    {"smiles": "O=S(=O)([O-])[O-].[Cu+2]", "note": "[CuSO4, copper sulfate]", "values": [
      {"measurement": "Lesion Appearance Score Distribution: number of cows with Grade Score 4 (Dead lesion)", "setting": "[1]", "result": 1},
      {"measurement": "Lesion Pain Score Distribution: number of cows with Grade Score 1 (Minor pain)", "setting": "[1]", "result": 10},
      {"measurement": "Lesion Size Score Distribution: number of cows with Grade Score 1 (Dime Size)", "setting": "[1]", "result": 6},
      {"measurement": "Lesion Size Score Distribution: number of cows with Grade Score 2 (Quarter Size)", "setting": "[1]", "result": 5},
      {"measurement": "Locomotion Score Distribution: number of cows with Grade Score 1 (Stands and walks normal)", "setting": "[1]", "result": 5},
      {"measurement": "Lesion Appearance Score Distribution: number of cows with Grade Score 4 (Dead lesion)", "setting": "Day 5", "result": 5},
      {"measurement": "Lesion Pain Score Distribution: number of cows with Grade Score 1 (Minor pain)", "setting": "Day 5", "result": 6},
      {"measurement": "Lesion Size Score Distribution: number of cows with Grade Score 1 (Dime Size)", "setting": "Day 5", "result": 4},
      {"measurement": "Lesion Size Score Distribution: number of cows with Grade Score 2 (Quarter Size)", "setting": "Day 5", "result": 4},
      {"measurement": "Locomotion Score Distribution: number of cows with Grade Score 1 (Stands and walks normal)", "setting": "Day 5", "result": 3},
      {"measurement": "Lesion Appearance Score Distribution: number of cows with Grade Score 4 (Dead lesion)", "setting": "Day 10", "result": 6},
      {"measurement": "Lesion Pain Score Distribution: number of cows with Grade Score 1 (Minor pain)", "setting": "Day 10", "result": 9},
      {"measurement": "Lesion Size Score Distribution: number of cows with Grade Score 1 (Dime Size)", "setting": "Day 10", "result": 10},
      {"measurement": "Lesion Size Score Distribution: number of cows with Grade Score 2 (Quarter Size)", "setting": "Day 10", "result": 1},
      {"measurement": "Locomotion Score Distribution: number of cows with Grade Score 1 (Stands and walks normal)", "setting": "Day 10", "result": 3},
      {"measurement": "Lesion Appearance Score Distribution: number of cows with Grade Score 4 (Dead lesion)", "setting": "Day 14", "result": 5},
      {"measurement": "Lesion Pain Score Distribution: number of cows with Grade Score 1 (Minor pain)", "setting": "Day 14", "result": 5},
      {"measurement": "Lesion Size Score Distribution: number of cows with Grade Score 1 (Dime Size)", "setting": "Day 14", "result": 4},
      {"measurement": "Lesion Size Score Distribution: number of cows with Grade Score 2 (Quarter Size)", "setting": "Day 14", "result": 6},
      {"measurement": "Locomotion Score Distribution: number of cows with Grade Score 1 (Stands and walks normal)", "setting": "Day 14", "result": 8},
      {"measurement": "Lesion Appearance Score Distribution: number of cows with Grade Score 4 (Dead lesion)", "setting": "Day 19", "result": 3},
      {"measurement": "Lesion Pain Score Distribution: number of cows with Grade Score 1 (Minor pain)", "setting": "Day 19", "result": 5},
      {"measurement": "Lesion Size Score Distribution: number of cows with Grade Score 1 (Dime Size)", "setting": "Day 19", "result": 8},
      {"measurement": "Lesion Size Score Distribution: number of cows with Grade Score 2 (Quarter Size)", "setting": "Day 19", "result": 3},
      {"measurement": "Locomotion Score Distribution: number of cows with Grade Score 1 (Stands and walks normal)", "setting": "Day 19", "result": 8},
      {"measurement": "Average lesion color score (scale 0 to 5)", "setting": "[2]", "result": 1.64},
      {"measurement": "Average lesion pain score (scale 0 to 2)", "setting": "[2]", "result": 1.09},
      {"measurement": "Average locomotion score (scale 1-5)", "setting": "[2]", "result": 1.82},
      {"measurement": "Average lesion color score (scale 0 to 5)", "setting": "Grading Period 2 (Day 5)", "result": 2.20},
      {"measurement": "Average lesion pain score (scale 0 to 2)", "setting": "Grading Period 2 (Day 5)", "result": 0.60},
      {"measurement": "Average lesion size score (scale 0 to 3)", "setting": "Grading Period 2 (Day 5)", "result": 1.80},
      {"measurement": "Average locomotion score (scale 1-5)", "setting": "Grading Period 2 (Day 5)", "result": 1.90},
      {"measurement": "Average lesion color score (scale 0 to 5)", "setting": "Grading Period 3 (Day 10)", "result": 2.45},
      {"measurement": "Average lesion pain score (scale 0 to 2)", "setting": "Grading Period 3 (Day 10)", "result": 1.00},
      {"measurement": "Average lesion size score (scale 0 to 3)", "setting": "Grading Period 3 (Day 10)", "result": 1.09},
      {"measurement": "Average locomotion score (scale 1-5)", "setting": "Grading Period 3 (Day 10)", "result": 1.82},
      {"measurement": "Average lesion color score (scale 0 to 5)", "setting": "Grading Period 4 (Day 14)", "result": 3.10},
      {"measurement": "Average lesion pain score (scale 0 to 2)", "setting": "Grading Period 4 (Day 14)", "result": 0.50},
      {"measurement": "Average lesion size score (scale 0 to 3)", "setting": "Grading Period 4 (Day 14)", "result": 1.60},
      {"measurement": "Average locomotion score (scale 1-5)", "setting": "Grading Period 4 (Day 14)", "result": 1.20},
      {"measurement": "Average lesion pain score (scale 0 to 2)", "setting": "Grading Period 5 (Day 19)", "result": 0.45},
      {"measurement": "Average lesion size score (scale 0 to 3)", "setting": "Grading Period 5 (Day 19)", "result": 1.27},
      {"measurement": "Average locomotion score (scale 1-5)", "setting": "Grading Period 5 (Day 19)", "result": 1.55}
    ]}
  ]
}
